Read-outs that look alike come from different tables or passages of the source.
Tests used:
U937 leukemia cells [1] = test: U937 cell attachment at 60 h, alone or with 10 nM PMA; format: cell-based; details: ligand alone
Toledo cells = test: Growth of Toledo cells; format: cell-based; details: 72 h; for IC50: read-out: IC50, growth inhibition of Toledo cells
PKCδ = PKCδ (Homo sapiens, UniProt Q05655); test: Downregulation of PKCδ in U937 cells; format: cell-based; details: 24 h
U937 leukemia cells [2] = details: proliferation and attachment assays; ref 12b-e; cited from earlier work
mCherry PKCδ = mCherry PKCδ (Homo sapiens, UniProt Q05655); test: Translocation of mCherry-tagged PKCδ in LNCaP cells; format: cell-based; details: 1 μM ligand
Sequence of mCherry PKCδ (Q05655 whole entry): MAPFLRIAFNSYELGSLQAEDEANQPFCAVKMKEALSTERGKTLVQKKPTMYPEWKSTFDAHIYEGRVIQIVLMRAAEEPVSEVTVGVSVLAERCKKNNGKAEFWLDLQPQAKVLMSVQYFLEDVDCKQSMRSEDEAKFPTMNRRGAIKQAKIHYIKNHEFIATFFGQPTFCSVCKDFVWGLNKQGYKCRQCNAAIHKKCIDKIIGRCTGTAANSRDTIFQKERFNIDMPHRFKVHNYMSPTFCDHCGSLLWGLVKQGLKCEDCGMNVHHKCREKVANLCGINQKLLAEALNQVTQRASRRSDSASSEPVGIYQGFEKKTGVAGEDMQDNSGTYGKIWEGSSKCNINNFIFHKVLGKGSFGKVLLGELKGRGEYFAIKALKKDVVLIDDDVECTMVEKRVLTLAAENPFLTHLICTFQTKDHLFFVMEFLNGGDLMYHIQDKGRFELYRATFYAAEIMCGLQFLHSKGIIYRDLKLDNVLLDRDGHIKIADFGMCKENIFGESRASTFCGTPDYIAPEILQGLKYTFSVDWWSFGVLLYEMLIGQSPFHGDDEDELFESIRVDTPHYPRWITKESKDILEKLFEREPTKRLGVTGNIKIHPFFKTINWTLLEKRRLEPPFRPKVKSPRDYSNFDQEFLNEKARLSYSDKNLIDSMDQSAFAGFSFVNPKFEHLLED

PKCβII = PKCβII (Homo sapiens, UniProt P05771); test: Downregulation of PKCβII in U937 cells; format: cell-based; details: 24 h
Sequence of PKCβII (P05771 1-673 isoform P05771-2): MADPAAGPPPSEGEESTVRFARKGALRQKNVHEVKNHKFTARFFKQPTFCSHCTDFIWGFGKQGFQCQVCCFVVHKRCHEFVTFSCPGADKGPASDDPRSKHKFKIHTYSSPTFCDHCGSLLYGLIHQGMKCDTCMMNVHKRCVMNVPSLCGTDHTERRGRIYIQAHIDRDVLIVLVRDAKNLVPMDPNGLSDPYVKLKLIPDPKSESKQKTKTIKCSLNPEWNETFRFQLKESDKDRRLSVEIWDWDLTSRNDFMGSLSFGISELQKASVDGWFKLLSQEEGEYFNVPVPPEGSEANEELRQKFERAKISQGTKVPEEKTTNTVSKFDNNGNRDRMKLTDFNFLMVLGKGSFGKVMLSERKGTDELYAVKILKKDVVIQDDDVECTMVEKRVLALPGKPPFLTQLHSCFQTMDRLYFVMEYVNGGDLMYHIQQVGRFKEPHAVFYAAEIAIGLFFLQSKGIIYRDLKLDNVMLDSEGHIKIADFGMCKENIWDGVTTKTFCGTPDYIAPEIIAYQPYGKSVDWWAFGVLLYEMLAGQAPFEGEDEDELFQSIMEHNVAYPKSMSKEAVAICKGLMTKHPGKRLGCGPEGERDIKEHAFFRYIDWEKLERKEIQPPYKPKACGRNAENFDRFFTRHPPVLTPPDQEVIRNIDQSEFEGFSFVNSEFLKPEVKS

Sequence of PKCδ (Q05655 whole entry): as the sequence (Q05655 whole entry) above

SMILES | Effect on attachment of U937 cells (U937 leukemia cells [1]) | IC50 (Toledo cells) | Downregulation of PKCδ (PKCδ) | Pattern of biological activity in U937 cells (PMA-like or bryostatin-like) (U937 leukemia cells [2]) | Effect on Toledo cell growth (Toledo cells) | IC50 (Toledo cells; Homo sapiens, Toledo) | Translocation of PKCδ (mCherry PKCδ) | Downregulation of PKCβII (PKCβII)
C=C1C[C@@H]2C[C@@H]3CC(=C)C[C@H](/C=C/C(C)(C)[C@]4(O)O[C@@H](C/C(=C\C(=O)OC)[C@@H]4OC(=O)/C=C/C=C/CCC)C[C@H]([C@@H](C)O)OC(=O)C[C@H](O)C[C@H](C1)O2)O3 [Merle 23] | induced attachment | 0.33 ± 0.11 nM | less potent than Merle 45 for downregulation but again showed no protection of PKCδ downregulation at high doses | largely PMA-like | – | – | – | –
C=C1C[C@H]2C[C@H]3C[C@@H](OC(C)=O)C[C@@H](C[C@@H](O)CC(=O)O[C@@H]([C@@H](C)O)C[C@@H]4C/C(=C\C(=O)OC)[C@H](OC(=O)CCCCCCC)[C@@](O)(O4)C(C)(C)/C=C/[C@@H](C1)O2)O3 [Merle 27] | – | – | – | PMA-like | – | – | – | –
C=C1C[C@H]2CC3(O)O[C@H](C[C@@H](O)CC(=O)O[C@@H]([C@@H](C)O)C[C@@H]4C/C(=C\C(=O)OC)[C@H](OC(=O)/C=C/C=C/CCC)[C@@](O)(O4)C(C)(C)/C=C/[C@@H](C1)O2)C[C@H](OC(C)=O)C3(C)C [Merle 28] | did not inhibit proliferation (Figure 1) or induce attachment | 0.111 ± 0.009 nM | – | bryostatin-like | – | – | – | –
CCC/C=C/C=C/C(=O)O[C@H]1/C(=C/C(=O)OC)C[C@H]2C[C@H]([C@@H](C)O)OC(=O)C[C@H](O)C[C@@H]3C[C@H](OC(C)=O)C(C)(C)[C@](O)(C[C@@H]4C/C(=C/C(=O)OC)C[C@H](/C=C/C(C)(C)[C@]1(O)O2)O4)O3 [bryostatin 1] | did not inhibit proliferation (Figure 1) or induce attachment | – | – | – | inhibited Toledo cell growth | 0.091 ± 0.026 nM | – | –
CCCCCCCCCCCCCC(=O)O[C@@H]1[C@@H](C)[C@@]2(O)[C@@H](C=C(CO)C[C@]3(O)C(=O)C(C)=C[C@@H]23)[C@@H]2C(C)(C)[C@]12OC(C)=O [PMA, phorbol 12-myristate 13-acetate] | induced attachment | – | – | – | inhibited Toledo cell growth | 0.57 ± 0.27 nM | characteristic translocation of PKCδ to the plasma and nuclear membranes, as well as to internal membranes | downregulated PKCβII at 24 h
